Laboratory results: patent publication US11319347B2, “Peptide compound and method for producing same, composition for screening use, and method for selecting peptide compound” (FUJIFILM Corporation, priority 2017, dated 2022)
Starred links: 1 amine or outer side, 2 acyl side, 3 side chain; linkers in the order of their positions; H or OH if unused. Positions of bridges follow the written chain, without caps; N, C: chain ends. Non-standard residues stand in square brackets, D forms with d. Residues, ends and D or L forms follow the SMILES beside them. ξ: configuration not given here. Phe(3-(4R-CO-2-thiazolinyl)) = O=C([C@H](Cc1cccc(C2=N[C@H](C(=O)[*:3])CS2)c1)N[*:1])[*:2]; Nle = CCCC[C@H](N)C(=O)O; ξL = CC(C)CC(N)C(=O)O

Test: Membrane permeability of synthesized cyclic peptides by PAMPA (Measurement Method A: 1 μmol/L; Method B: 10 μmol/L)
Format: in vitro ADME
Conditions: 25° C., 4 hours
Protocol: Evaluation of membrane permeability of synthesized cyclic peptide by PAMPA method In order to compare and examine the membrane permeability of the synthesized cyclic peptide, parallel artificial membrane permeability assay (PAMPA) was carried out.
An artificial phospholipid membrane was produced by adding 5 μL of a phospholipid organic solvent solution consisting of L-α-phosphatidylcholine (Avanti Polar Lipids, Inc., Cat. 840051P, 1.67%), 1,2-dioleoyl-sn-glycero-3-phospho-L-serine (Avanti Polar Lipids, Inc., Cat. 840035P, 0.33%), and n-dodecane special grade (Wako Pure Chemical Industries, Ltd., 047-21612)/1-octanol reagent special grade (Kanto Chemical Co., Inc., Cat. 31013-08)=10:1 to Filter Plate (Merck Millipore Corporation, Cat. MAIPN4550).
475 μL of 50 mmol/L potassium phosphate buffer (KPB, pH 7.4 or pH 6.5) was added to 25 μL of a DMSO solution containing the compound at a concentration of 20 μmol/L, so that the compound was diluted to a final concentration of 1 μmol/L. 300 μL of the compound solution was added to the lower side (donor side) of PAMPA 96-well plate (Filter Plate (Merck Millipore Corporation, Cat. MAIPN4550)) with an artificial phospholipid membrane being interposed therebetween. 200 μL of 5% DMSO KPB (pH 7.4) was added to the upper side (acceptor side) with the artificial phospholipid membrane being interposed therebetween. A permeation test through an artificial phospholipid membrane was carried out at 25° C. for 4 hours. The compound concentration in the solution in the donor plate and the acceptor plate was measured by LC/MS/MS, and the membrane permeation rate (Pe) of the compound was calculated from the following formula, assuming that C0 is an initial compound concentration in donor solution, t is a test time, A is a membrane filter area=0.3 cm^2, VD is a donor solution amount=300 μL, VA is an acceptor solution amount=200 μL, and CD(t) is a compound concentration in donor solution at time t, CA(t) is a compound concentration in acceptor solution at time t, and Cequilibrium=[CD(t)*VD+CA(t)*VA]/(VD+VA).
475 μL of 50 mmol/L potassium phosphate buffer (KPB, pH 7.4 or pH 6.5) was added to 25 μL of a DMSO solution containing the compound at a concentration of […], so that the compound was diluted to a final concentration of 10 μmol/L. The compound solution was added 300 μL each to the lower side (donor side) of an artificial phospholipid membrane of PAMPA 96-well plate (Filter Plate (Merck Millipore Corporation, Cat. MAIPN4550)). 200 μL of 5% DMSO KPB (pH 7.4) was added to the upper side (acceptor side) with the artificial phospholipid membrane being interposed therebetween. A permeation test through an artificial phospholipid membrane was carried out at 25° C. for 4 hours. The compound concentration in the solution in the donor plate and the acceptor plate was measured by LC/MS/MS, and the membrane permeation rate (Pe) of the compound was calculated from the following formula, assuming that Co is an initial compound concentration in donor solution, t is a test time, A is a membrane filter area=0.3 cm^2, VD is a donor solution amount=300 μL, VA is an acceptor solution amount=200 μL, and CD(t) is a compound concentration in donor solution at time t, CA(t) is a compound concentration in acceptor solution at time t, and Cequilibrium=[CD(t)*VD+CA(t)*VA]/(VD+VA).
The membrane permeability (Pe(10^−6 cm/s)) obtained by this method is described in the following table.
Evaluation standards are as follows.

[1] = Measurement method B (10 μmol/L)

| SMILES | Pe(10^−6 cm/sec) (Measurement method A) | Pe(10^−6 cm/sec) [1] |
| --- | --- | --- |
| N=C(N)NCCC[C@@H]1NC(=O)[C@H](Cc2c[nH]c3ccccc23)NC(=O)[C@@H](CC2CCCCC2)NC(=O)[C@@H]2CCCN2C(=O)[C@@H]2CSC(=N2)C[C@@H](C(N)=O)NC1=O [3-5] | ++ (0.2<Pe (10^−6 cm/s)≤0.5) | – |
| CC(C)C[C@@H]1NC(=O)[C@@H](C(C)C)NC(=O)[C@H](C)NC(=O)CSC[C@@H](C(N)=O)NC(=O)[C@@H](CCC(=O)O)NC(=O)[C@@H](Cc2c[nH]c3ccccc23)NC1=O [7-4] ({CH2CO}-A[dV]L[dW][dE]C-NH2; thioether N-6) | + (0.01<Pe (10^−6 cm/s)≤0.2) | – |
| N=C(N)NCCC[C@@H]1NC(=O)[C@H](Cc2c[nH]c3ccccc23)NC(=O)[C@@H](CC2CCCCC2)NC(=O)[C@@H]2CCCN2C(=O)[C@@H]2CSC(=N2)c2sccc2C[C@@H](C(N)=O)NC1=O [2-17] | +++ (0.5<Pe (10^−6 cm/s)) | – |
| N=C(N)NCCC[C@@H]1NC(=O)[C@H](Cc2c[nH]c3ccccc23)NC(=O)[C@@H](CC2CCCCC2)NC(=O)[C@@H]2CCCN2C(=O)[C@@H]2CSC(=N2)c2cn3cc(cnc3n2)-c2cccc(c2)C[C@@H](C(N)=O)NC1=O [a-1-16] | – | ++ (0.2<Pe (10^−6 cm/s)≤0.5) |
| CC(=O)N[C@H]1CSSC[C@@H](C(N)=O)NC(=O)[C@@H](CCC(=O)O)NC(=O)[C@@H](Cc2c[nH]c3ccccc23)NC(=O)[C@H](CC(C)C)NC(=O)[C@@H](C(C)C)NC1=O [9-2] (Ac-C[dV]L[dW][dE]C-NH2; disulfide 1-6) | + (0.01<Pe (10^−6 cm/s)≤0.2) | – |
| CC(=O)N[C@H]1CSSC[C@@H](C(N)=O)NC(=O)[C@H]([C@@H](C)O)NC(=O)[C@H](CCCCN)NC(=O)[C@@H](Cc2c[nH]c3ccccc23)NC(=O)[C@H](Cc2ccccc2)NC1=O [9-3] (Ac-CF[dW]KTC-NH2; disulfide 1-6) | Below the limit | – |
| CCCC[C@@H]1NC(=O)[C@H](CCCCN)NC(=O)C(CC(C)C)NC(=O)[C@H](CC(C)C)NC(=O)[C@@H]2CSC(=N2)c2cc(cs2)C[C@@H](C(N)=O)NC(=O)C(Cc2ccccc2)NC(=O)[C@H](CO)NC(=O)[C@H](C)NC(=O)[C@@H]2CCCN2C1=O (some centres unmarked) [4-9] | + (0.01<Pe (10^−6 cm/s)≤0.2) | – |
| CC(C)C[C@@H]1NC(=O)[C@@H](C(C)C)NC(=O)[C@H](C)NC(=O)Cn2cc(nn2)C[C@@H](C(N)=O)NC(=O)[C@@H](CCC(=O)O)NC(=O)[C@@H](Cc2c[nH]c3ccccc23)NC1=O [10-3] | − (0.01≤Pe (10^−6 cm/s)) | – |
| CCCC[C@@H]1NC(=O)[C@H](CCCCN)NC(=O)[C@H](CC(C)C)NC(=O)[C@H](CC(C)C)NC(=O)[C@@H](NC(C)=O)CSSC[C@@H](C(N)=O)NC(=O)[C@H](Cc2ccccc2)NC(=O)[C@H](C)NC(=O)[C@H](C)NC(=O)[C@@H]2CCCN2C1=O [9-4] (Ac-CLLK[Nle]PAAFC-NH2; disulfide 1-10) | Below the limit | – |
| C[C@@H]1NC(=O)Cn2cc(nn2)C[C@@H](C(N)=O)NC(=O)[C@H](CCCNC(=N)N)NC(=O)[C@H](Cc2c[nH]c3ccccc23)NC(=O)[C@@H](CC2CCCCC2)NC(=O)[C@@H]2CCCN2C1=O [10-1] | + (0.01<Pe (10^−6 cm/s)≤0.2) | – |
| CCCC[C@@H]1NC(=O)[C@H](CCCCN)NC(=O)C(CC(C)C)NC(=O)[C@H](CC(C)C)NC(=O)[C@@H]2CSC(=N2)c2cc(cs2)C[C@@H](C(N)=O)NC(=O)C(Cc2ccccc2)NC(=O)[C@H](C)NC(=O)[C@H](C)NC(=O)[C@@H]2CCCN2C1=O (some centres unmarked) [4-8] | ++ (0.2<Pe (10^−6 cm/s)≤0.5) | – |
| N=C(N)NCCC[C@@H]1NC(=O)[C@H](Cc2c[nH]c3ccccc23)NC(=O)[C@@H](CC2CCCCC2)NC(=O)[C@@H]2CCCN2C(=O)[C@@H]2CSC(=N2)c2ccc(cn2)OCCOCCOCCOCCOc2ccc(cc2)C[C@@H](C(N)=O)NC1=O [a-1-8] | +++ (0.5<Pe (10^−6 cm/s)) | – |
| C[C@@H]1NC(=O)CC[C@@H](C(N)=O)NC(=O)[C@@H](Cc2ccccc2)NC(=O)CNC(=O)CNC(=O)[C@@H](Cc2ccc(O)cc2)NC1=O [8-2] (A[dY]GG[dF]E-NH2; lactam N-6) | + (0.01<Pe (10^−6 cm/s)≤0.2) | – |
| N=C(N)NCCC[C@@H]1NC(=O)[C@H](Cc2c[nH]c3ccccc23)NC(=O)[C@@H](CC2CCCCC2)NC(=O)[C@@H]2CCCN2C(=O)[C@@H]2CSC(=N2)c2cc(on2)C[C@@H](C(N)=O)NC1=O [a-1-6] | +++ (0.5<Pe (10^−6 cm/s)) | – |
| C[C@@H](O)[C@@H]1NC(=O)[C@H](CCCCN)NC(=O)[C@@H](Cc2c[nH]c3ccccc23)NC(=O)[C@H](Cc2ccccc2)NC(=O)[C@@H]2CSC(=N2)c2cc(cs2)C[C@@H](C(N)=O)NC1=O [4-6] | + (0.01<Pe (10^−6 cm/s)≤0.2) | – |
| Cn1nc2c3cc(ccc31)C[C@@H](C(N)=O)NC(=O)[C@H](CCCNC(=N)N)NC(=O)[C@H](Cc1c[nH]c3ccccc13)NC(=O)[C@@H](CC1CCCCC1)NC(=O)[C@@H]1CCCN1C(=O)[C@@H]1CSC2=N1 [a-1-3] | +++ (0.5<Pe (10^−6 cm/s)) | – |
| N=C(N)NCCC[C@@H]1NC(=O)[C@H](Cc2c[nH]c3ccccc23)NC(=O)[C@@H](CC2CCCCC2)NC(=O)[C@@H]2CCCN2C(=O)[C@@H]2CSC(=N2)c2cn(nn2)C[C@@H](C(N)=O)NC1=O [a-1-2] | ++ (0.2<Pe (10^−6 cm/s)≤0.5) | – |
| N=C(N)NCCC[C@@H]1NC(=O)[C@H](Cc2c[nH]c3ccccc23)NC(=O)[C@@H](CC2CCCCC2)NC(=O)[C@@H]2CCCN2C(=O)[C@@H]2CSC(=N2)c2ccc(cc2)[C@@H](C(N)=O)NC1=O [a-1-19] | +++ (0.5<Pe (10^−6 cm/s)) | – |
| CC(=O)N[C@H]1CCCCNC(=O)[C@@H]2CSC(=N2)c2cccc(c2)C[C@@H](C(N)=O)NC(=O)[C@H](C)NC(=O)C(CC(C)C)NC(=O)[C@H](CCCCN)NC(=O)[C@H](CC(C)C)NC(=O)[C@H](C)NC(=O)[C@H](CC(C)C)NC1=O (stereo partly drawn) [a-4-1] (Ac-KLALK[ξL]A[Phe(3-(4R-CO-2-thiazolinyl))]-NH2; lactam 1-8) | – | + (0.01<Pe (10^−6 cm/s)≤0.2) |
| CCCC[C@@H]1NC(=O)[C@H](CCCCN)NC(=O)[C@H](CC(C)C)NC(=O)[C@H](CC(C)C)NC(=O)[C@H](C)NC(=O)CSC[C@@H](C(N)=O)NC(=O)[C@H](Cc2ccccc2)NC(=O)[C@H](C)NC(=O)[C@H](C)NC(=O)[C@@H]2CCCN2C1=O [7-5] ({CH2CO}-ALLK[Nle]PAAFC-NH2; thioether N-10) | Below the limit | – |
| C[C@@H]1NC(=O)Cn2cc(nn2)C[C@@H](C(N)=O)NC(=O)[C@H]([C@@H](C)O)NC(=O)[C@H](CCCCN)NC(=O)[C@@H](Cc2c[nH]c3ccccc23)NC(=O)[C@H](Cc2ccccc2)NC1=O [10-4] | − (0.01≤Pe (10^−6 cm/s)) | – |
| N=C(N)NCCC[C@@H]1NC(=O)[C@H](Cc2c[nH]c3ccccc23)NC(=O)[C@@H](CC2CCCCC2)NC(=O)[C@@H]2CCCN2C(=O)[C@@H]2CSC(=N2)c2cn3c(cccc3n2)C[C@@H](C(N)=O)NC1=O [a-1-12] | +++ (0.5<Pe (10^−6 cm/s)) | – |
| N=C(N)NCCC[C@@H]1NC(=O)[C@H](Cc2c[nH]c3ccccc23)NC(=O)[C@@H](CC2CCCCC2)NC(=O)[C@@H]2CCCN2C(=O)[C@@H]2CSC(=N2)c2cn3nc(ccc3n2)-c2cccc(c2)C[C@@H](C(N)=O)NC1=O [a-1-15] | – | ++ (0.2<Pe (10^−6 cm/s)≤0.5) |
